{"source": "patent US20060111335A1", "about": "“Photoactivated anti-viral and anti-cancer agent” (priority 2002, published 2006)", "tested_on": "SINV genomic RNA", "experiment": "Immunofluorescence assay for SINV capsid protein translated from irradiated viral RNA in BHK cells", "format": "cell-based, Sindbis virus", "conditions": "RNA from virus irradiated with compound", "protocol": "An immunofluorescence assay was also employed to detect the presence of SINV capsid protein newly translated from the irradiated viral genomic RNA. For these experiments the virus solutions had to be 10 log10 pfu/mL, which is a virus concentration 3 orders of magnitude higher than that used in the previous experiments. Also, the DPPZPHEN solutions had to be prepared in DMSO to maintain the ratio of drug to virus as in the previous experiments. […] SINV RNA from virus that had been either incubated in the dark or irradiated with DPPZPHEN was isolated and transfected into baby hamster kidney cells as described above. Following electroporation, the cells were plated on coverslips and incubated at 37° C. for 12 hours. The cells on the coverslips were then fixed with methanol for 15 minutes and washed twice with 1×PBS buffer. They were then incubated with anti-CP (SINV) polyclonal antibody (Owen et al., J. Virol., 70:2757-2763 (1996)) for 45 minutes at 37° C. After washing three times with 1×PBS buffer the cells were incubated with fluorescein-5-isothiocyanate (FITC) conjugated goat anti-rabbit secondary antibody (obtained from Kirkegaard and Perry, Gaithsburg, Md.) at 37° C. for 45 minutes. […] They were viewed under a Nikon Eclipse TE200 with a TE-FM Epi-fluorescence attachment.", "data": [{"smiles": "[Cl-].[Cl][Rh+]12([Cl])([N]3C=CC=c4ccc5c(c43)[N]1C=CC=5)[N]1C=CC=c3c1c1c(c4nc5ccccc5nc34)=CC=C[N]12", "note": "[DPPZPHEN, cis-dichloro(dipyrido[3,2a-2′3′c]phenazine)(1,10-phenantroline) rhodium(III) chloride]", "values": [{"measurement": "SINV capsid protein (CP) in transfected BHK cells", "result": "CP was not observed"}]}]}
